The star is where a group is joined. Cbz = O=C(OCc1ccccc1)*; CH2F = FC*
Tests used:
[1] = test system: sGITRL-induced NK cell death; test: NK cell survival after sGITRL treatment (trypan blue); assay type: cell-based, human; settings: then 5 ng/mL sGITRL for two days
[2] = test system: SK-4 (stomach cancer) cells; test: Cytotoxicity of NK cells after TGF-β receptor inhibitor treatment (SK-4); assay type: cell-based; settings: NK cells treated with LY2157299 100 nM for 24 hours, co-cultured 48 hours
Method: (§1) NK cells are treated with LY2157299 (100 nM), a compound inhibiting kinases related to TGF-β receptor signaling, for 24 hours and then co-cultured with SK-4 (stomach cancer) or HCT-15 (colon cancer) cells for 48 hours.

[3] = test system: HCT-15 (colon cancer) cells; test: Cytotoxicity of NK cells after TGF-β receptor inhibitor treatment (HCT-15); assay type: cell-based; settings: NK cells treated with LY2157299 100 nM for 24 hours, co-cultured 48 hours
Method: as §1

[4] = test system: TGF-β-induced NK cell death; test: NK cell survival after TGF-β treatment (trypan blue); assay type: cell-based, human; settings: FIG. 1E; LY2157299 100 nM pretreatment 24 hours, then 1 ng/mL TGF-β for two days
[5] = test system: Fas-L-induced NK cell death; test: NK cell survival after Fas-L treatment (trypan blue); assay type: cell-based, human; settings: FIG. 1D; Z-IETD-FMK 2 μM pretreatment 24 hours, then 5 ng/mL Fas-L for two days
[6] = test system: NCI-H1299 (lung cancer) cells; test: Cytotoxicity of NK cells after caspase-8 inhibitor treatment (NCI-H1299); assay type: cell-based; settings: NK cells treated with Z-IETD-FMK 2 μM for 24 hours, co-cultured 48 hours
Method: (§2) NK cells are treated with Z-IETD-FMK (2 μM), an inhibitory peptide against apoptosis-related activity of Caspase-8, for 24 hours and then co-cultured with NCI-H1299 (lung cancer) or PC-3 (prostate cancer) cells for 48 hours.

[7] = test system: PC-3 (prostate cancer) cells; test: Cytotoxicity of NK cells after caspase-8 inhibitor treatment (PC-3); assay type: cell-based; settings: NK cells treated with Z-IETD-FMK 2 μM for 24 hours, co-cultured 48 hours
Method: as §2

Compound | cell death induced by sGITRL (NK cell survival rate) ([1]; FIG. 1E, LY2157299 100 nM pretreatment 24 hours) | Cytotoxicity of NK Cells to SK-4 Cells ([2]; E:T = 0.1:1, With IL-2) | Cytotoxicity of NK Cells to SK-4 Cells ([2]; E:T = 0.1:1, Without IL-2) | Cytotoxicity of NK Cells to SK-4 Cells ([2]; E:T = 05:1, With IL-2) | Cytotoxicity of NK Cells to SK-4 Cells ([2]; E:T = 05:1, Without IL-2) | Cytotoxicity of NK Cells to HCT-15 Cells ([3]; E:T = 0.1:1, W/ IL-2) | Cytotoxicity of NK Cells to HCT-15 Cells ([3]; E:T = 0.1:1, W/O IL-2) | Cytotoxicity of NK Cells to HCT-15 Cells ([3]; E:T = 05:1, W/ IL-2) | Cytotoxicity of NK Cells to HCT-15 Cells ([3]; E:T = 05:1, W/O IL-2) | cell death induced by TGF-β (NK cell survival rate) [4] | cell death induced by sGITRL (NK cell survival rate) ([1]; FIG. 1D, Z-IETD-FMK 2 μM pretreatment 24 hours) | cell death induced by Fas-L (NK cell survival rate) [5] | Cytotoxicity of NK Cells to NCI-H1299 Cells ([6]; E:T = 0.1:1, With IL-2) | Cytotoxicity of NK Cells to NCI-H1299 Cells ([6]; E:T = 0.1:1, Without IL-2) | Cytotoxicity of NK Cells to NCI-H1299 Cells ([6]; E:T = 0.5:1, With IL-2) | Cytotoxicity of NK Cells to NCI-H1299 Cells ([6]; E:T = 0.5:1, Without IL-2) | Cytotoxicity of NK Cells to PC-3 Cells ([7]; E:T = 0.1:1, W/ IL-2) | Cytotoxicity of NK Cells to PC-3 Cells ([7]; E:T = 0.1:1, W/O IL-2) | Cytotoxicity of NK Cells to PC-3 Cells ([7]; E:T = 0.5:1, W/ IL-2) | Cytotoxicity of NK Cells to PC-3 Cells ([7]; E:T = 0.5:1, W/O IL-2)
Cc1cccc(-c2nn3c(c2-c2ccnc4ccc(C(N)=O)cc24)CCC3)n1 [LY2157299] | suppressed cell death | 39% | 27% | 59% | 35% | 86% | 68% | 98% | 82% | suppressed cell death | – | – | – | – | – | – | – | – | – | –
Cbz-IETD-CH2F | – | – | – | – | – | – | – | – | – | – | suppressed cell death | suppressed cell death | 33% | 25% | 58% | 34% | 76% | 48% | 96% | 78%

From patent publication US11504396B2 (NKMAX Co., Ltd., priority 2016, dated 2022)
